{"source": "patent US11278548B2", "about": "“Methods and compositions for reducing side effects in chemotherapeutic treatments” (Galderma Research and Development, priority 2017, dated 2022)", "test_system": "acneiform rash", "note": "“Also recorded” adds a separate entry of the source."}
{"smiles": "Brc1c(NC2=NCCN2)ccc2nccnc12", "note": "[brimonidine, (5-bromo-quinoxalin-6-yl)-(4,5-dihydro-1H-imidazol-2-yl)-amine]", "values": [{"measurement": "treated patients with a decrease in rash severity", "setting": "18 EGFRI-treated patients, CTCAE v4.0 grading, followed for 12 to 24 weeks, n=17, most also on antibiotics or corticosteroids", "result": 94, "unit": "%"}, {"measurement": "adverse events to brimonidine", "setting": "18 EGFRI-treated patients, followed for 12 to 24 weeks", "result": "not reported; also recorded: no adverse events"}, {"measurement": "acneiform rash outcome (in words)", "setting": "EGFRI-treated patients, 83% also receiving systemic antibiotics, topical antibiotics or corticosteroids", "result": "improvement in acneiform rash in all patients"}, {"measurement": "dose modification of anticancer therapies", "setting": "majority of treated patients", "result": "did not require dose modification"}]}
